Laboratory results as given in US6541453B2, “Peptide derivatives” (Syngenta Limited, priority 1996, dated 2003).
pIC50: −log10 of the molar value. Read-outs that look alike come from different tables or passages of the source.

Assays:
HLA-DR1 = target: T1, HLA-DR1 (Homo sapiens, UniProt P01903+P01911, A100R/D57E/F55L/F60I/F76Y/I96L/L162R/M171V/P40L/Q125E/R42F/V115G/Y59C); assay: Variant to Test A: peptide selectivity binding assay
T1 construct: endogenous in cells; host or cells: Hom 2 cell line
Description: The method used was a modification of that described by Gorga et al, 1987, J.Biol.Chem. 262, 16087-16094. Human HLA-DR antigens were purified from various cell lines by immunoaffinity chromatography. Briefly, 1×10^9-5×10^9 pelleted cells of the appropriate cell line selected from Hom 2 (source of DR1), BBF (source of DR2), AVL-B (source of DR3), JAH (source of DR4Dw4), JHAF (source of DR4Dw13) or PE117 (source of DR4Dwl4) were solubilised at approximately 4° C. in 50 ml of 5 mM EDTA (sodium salt), 50 mM Tris-HCL pH 7.4, 2% NP40, 150 mM NaCl, 1 mM iodoacetamide, 1 mM PMSF, by homogenisation with 10 strokes of a teflon glass homogeniser. […] Protein content was determined by a Biorad protein assay and purity by SDS-PAGE electrophoresis.
200 nM biotin-FHA307-320 in phosphate buffered saline (PBS) was incubated with either purified HLA-DR1, DR2, DR4Dw4, DR4Dw13 or DR4Dwl4 (2-20 μg/ml) in V-well microtitre plates (Nunc) with or without inhibitor peptides in assay buffer (PBS, 0.01% NP40 (Sigma.)) For DR3 inhibition, 400 nM Biotin-Ahx-(D)Ala-Ala-Ala-Cha-[…](D)Ala-OH [SEQ ID No. 14] was incubated with purified DR3 (20 μg/ml.), and incubated as above. After 48 hours, the incubates were treated, and absorbance readings taken as described in Test A. The inhibitory activity of peptides, expressed as IC50 values, was calculated using Microcal Origin software on a PC.

[1] = Peptide content of extruded polymer depot formulation (loss on extrusion); format: physicochemical
Description: About 20 mg of peptide is accurately weighed and sufficient polymer (50/50% molar poly(D,L-lactic acid/glycolic acid) copolymer of approximate weight average molecular weight 20 kD and approximate polydispersity of 1.7 as determined by size exclusion chromatography relative to polystyrene standards) added to produce an approximate 20% w/w mixture. This is dissolved in anhydride-free glacial acetic acid to produce an approximate 10% w/v solution. The solution is freeze dried and the resulting freeze dried product is stored under vacuum prior to use.
About 100 mg of freeze dried material is loaded into the barrel of a small laboratory extruder and the plunger pushed down to consolidate the sample. The extruder is heated to between 90 and 95 ° C. and held at this temperature for 10 minutes before the freeze dried material is extruded under pressure to give a cylindrical extrudate of approximately 1 mm in diameter. […]
Each standard is filtered through a 5 μm Millex PTFE filter and an aliquot of filtrate, together with aliquots of the solutions A, analysed by HPLC using duplicate sample injections. The peptide content of the extruded polymer depot formulation of peptide is calculated from the concentration of peptide in solutions A, which is determined by comparing the area of the peptide peak in solutions A with the area of the peptide peak from the standard solutions.

[2] = Aqueous stability of peptide in McIlvaine's citric acid-phosphate buffer
Description: Approximately 20 ml of McIlvaine's citric acid-phosphate buffer solution at pH 3 or 7.6 containing 0.02% sodium azide is filtered into a 50 ml bottle using a sterile 0.22 μm filter unit and a 20 ml syringe. Approximately 1.2 mg of peptide is accurately weighed in a capped vial. […] The vial is capped and shaken to dissolve the peptide. Using a sterile pipette tip, aliquots of approximately 1 ml of the peptide solution are transferred to 10 HPLC vials, which are then capped. 5 vials are stored at −18 and 37° C. The area of the peptide peak for the solution is determined by HPLC using appropriate standards initially and after storage at −18 and 37° C. for 1, 2, 3 and 4 weeks, using a fresh vial at each time point with duplicate sample injections. The percentage of peptide remaining after storage at 37° C. at each time point is determined from the ratio of the area of the peptide peak at each time point to the initial area.

[3] = Degradation of peptide on in vitro release from an extruded polymer depot
Description: A solution of McIlvaine's citric acid-phosphate buffer solution at pH 7.6 containing 0.02% sodium azide, is filtered through a 0.22μ filter and stored at 4° C. Approximately 10 mg of extruded polymer depot containing peptide is placed in two small vials and 2 ml of the buffer solution added. The vials are then capped and stored in a water bath at 37° C. for a month. At suitable time points over a month, three 0.6 ml aliquots of release medium are removed from each vial and either analysed by HPLC or stored frozen in an HPLC vial at −18° C. prior to analysis by HPLC. 1.8 ml of the buffer solution is added to each vial containing the depot to replace the release medium that has been removed at each time point.
The average amount of intact peptide in the release medium at each time point is determined by HPLC using duplicate sample injections by comparing the area of the peptide peak in the release media with the area of the peptide peak from standard buffer solutions of peptide at known concentrations. […] The average cumulative in vitro release profile of intact peptide and total peptide (intact peptide and peptide degradation products) is determined from the amounts of intact peptide and peptide degradation products in the release medium at each time point.

Row | SMILES | pIC50 (HLA-DR1) | loss due to degradation on extrusion [1] | aqueous stability ([2]; pH3) | aqueous stability ([2]; pH7.6) | degradation on release from depot formulation [3] | aqueous stability (pH3) | aqueous stability (pH7.6)
1 | COCCN(CCOC)C(=O)CN(CC(=O)N(CCOC)CCOC)C(=O)C[C@H](NC(=O)[C@H](C)NC(=O)[C@H](CCCNC(=N)N)NC(=O)[C@H](C)NC(=O)CCCCc1ccccc1)C(=O)N[C@H](C(=O)N[C@@H]1CCN([C@@H](C)C(=O)N[C@@H](C)C(=O)Nc2ccc(CC(N)=O)cc2)C1=O)[C@@H](C)O [Example 3, Phv-Ala-Arg-Ala-II-Thr-IIIa-Ala-Papa-NH2] | < 4.00 | minimal loss due to degradation on extrusion | good aqueous stability | good aqueous stability | minimal degradation on release |  | 
2 | COCCOCCOCCN(CCOCCOCCOC)C(=O)CN(CC(=O)N(CCOCCOCCOC)CCOCCOCCOC)C(=O)C[C@H](NC(=O)[C@H](C)NC(=O)[C@H](C)NC(=O)[C@H](CCCNC(=N)N)NC(=O)CCCCc1ccccc1)C(=O)N[C@H](C(=O)N[C@@H]1CCN([C@@H](C)C(=O)N[C@@H](C)C(=O)Nc2ccc(CC(N)=O)cc2)C1=O)[C@@H](C)O [Example 6, Phv-Arg-Ala-Ala-II-Thr-IIIa-Ala-Papa-NH2] | < 4.00 | minimal loss due to degradation on extrusion |  |  |  | good aqueous stability | good aqueous stability
